Like-named read-outs stand apart in the source and are kept apart here.
How the values were obtained:
[1] = molecular target: T1, Human UII receptor, 6D9 human rhabdomyosarcoma cells (Homo sapiens, UniProt Q9UKP6); assay: Human UII Calcium Mobilization Assay; assay type: cell-based; conditions: average value, FLIPR TETRA, read-out: Human UII Ca^+ Mobilization Average IC50
T1 construct: 6D9: isolated by dilution subcloning of RMS13 cells, ATCC® Number: CRL-2061; host or cells: 6D9 human rhabdomyosarcoma cells (subclone of RMS13)
T1 sequence (Q9UKP6 1-389): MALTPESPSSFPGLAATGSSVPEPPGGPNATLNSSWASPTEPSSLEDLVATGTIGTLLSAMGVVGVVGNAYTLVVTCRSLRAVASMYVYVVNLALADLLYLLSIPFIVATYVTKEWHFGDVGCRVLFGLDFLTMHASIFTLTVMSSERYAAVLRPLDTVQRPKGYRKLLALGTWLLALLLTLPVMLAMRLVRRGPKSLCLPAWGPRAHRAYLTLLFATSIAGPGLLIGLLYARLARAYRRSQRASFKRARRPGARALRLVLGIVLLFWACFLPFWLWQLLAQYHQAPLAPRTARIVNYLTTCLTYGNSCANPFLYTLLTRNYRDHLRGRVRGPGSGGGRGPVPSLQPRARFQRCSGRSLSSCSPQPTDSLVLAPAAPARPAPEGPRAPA
Method in brief: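 6D9 rhabdomyosarcoma cells loaded 45 min at 37° C with calcium dye (1.25 mM probenecid, 0.01% FBS, HBSS/20 mM HEPES). Antagonist and U-II agonist added at room temperature; FLIPR fluorescence read over 4 min; EC50/IC50 fitted. DMSO ≤0.1% final.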

[2] = molecular target: T2, rat GPR14 (U-II receptor) (Rattus norvegicus, UniProt P49684); assay: Rat UII Calcium Mobilization FLIPR Assay; assay type: cell-based; conditions: average value for the compound tested; read-out: Rat UII FLIPR Average IC50
T2 construct: expressed in transfected cells
T2 sequence (P49684 1-386): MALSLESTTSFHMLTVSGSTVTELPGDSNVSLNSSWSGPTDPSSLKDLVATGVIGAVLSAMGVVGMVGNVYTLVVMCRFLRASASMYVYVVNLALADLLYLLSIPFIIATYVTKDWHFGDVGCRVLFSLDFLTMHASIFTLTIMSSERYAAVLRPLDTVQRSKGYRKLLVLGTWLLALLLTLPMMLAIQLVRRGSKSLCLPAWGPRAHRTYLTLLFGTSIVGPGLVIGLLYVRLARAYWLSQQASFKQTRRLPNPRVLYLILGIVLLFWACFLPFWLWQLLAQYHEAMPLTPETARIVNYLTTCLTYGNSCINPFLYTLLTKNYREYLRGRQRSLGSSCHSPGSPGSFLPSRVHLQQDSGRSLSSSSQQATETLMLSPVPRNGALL
Method in brief: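 CHO cells stably expressing rat U-II receptor, seeded 24 h before assay, were loaded with FLIPR calcium dye in HBSS/20 mM HEPES/0.1% BSA/2.5 mM probenecid, pH 7.4, for 1 h at 37° C. Calcium mobilization then read by FLIPR at 23° C.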

[3] = molecular target: T3, endogenous human UII receptor (Homo sapiens, UniProt Q9UKP6); assay: Human Radioligand Binding Assay ((^125I)-U-II binding to human skeletal muscle myoblasts)
T3 sequence (Q9UKP6 1-389): T1 sequence (Q9UKP6 1-389)

[4] = read-out: Human UII Average Binding Ki, average value, (^125I)-U-II binding to human skeletal muscle myoblasts (HSMM), 25° C., 3 h

Compound | IC50 [1] | IC50 [2] | Ki [3] | Ki [3, 4]
COc1ccc([C@@H](CCCNC(=O)c2cccnc2)N2C(=O)c3cccc(N4CCN([C@H](C)c5ccccc5)CC4)c3C2=O)cc1OC [Cpd 151, (R)-N-(4-(3,4-dimethoxy-phenyl)-4-{1,3-dioxo-4-[4-(1R)-(1-phenyl-ethyl)-piperazin-1-yl]-1,3-dihydro-isoindol-2-yl}-butyl)-nicotinamide] | 1000 nM | 14 nM | 74 nM | –
COc1ccc([C@@H](CCCNC(=O)c2cncn2C)N2C(=O)c3cccc(N4CCN([C@H](C)c5ccccc5)CC4)c3C2=O)cc1OC [Cpd 152, (R)-3-methyl-3H-imidazole-4-carboxylic acid (4-(3,4-dimethoxy-phenyl)-4-{1,3-dioxo-4-[4-(1R)-(1-phenyl-ethyl)-piperazin-1-yl]-1,3-dihydro-isoindol-2-yl}-butyl)-amide] | 660 nM | 17 nM | 69 nM | –
COc1ccc([C@@H](CCCNC(=O)c2cn(C)cn2)N2C(=O)c3cccc(N4CCN([C@H](C)c5ccccc5)CC4)c3C2=O)cc1OC [Cpd 153, (R)-1-methyl-1H-imidazole-4-carboxylic acid (4-(3,4-dimethoxy-phenyl)-4-{1,3-dioxo-4-[4-(1R)-(1-phenyl-ethyl)-piperazin-1-yl]-1,3-dihydro-isoindol-2-yl}-butyl)-amide] | 1200 nM | 13 nM | 88 nM | –
COc1ccc([C@@H](CCCNC(=O)c2ccncc2)N2C(=O)c3cccc(N4CCN([C@H](C)c5ccccc5)CC4)c3C2=O)cc1OC [Cpd 154, (R)-N-(4-(3,4-dimethoxy-phenyl)-4-{1,3-dioxo-4-[4-(1R)-(1-phenyl-ethyl)-piperazin-1-yl]-1,3-dihydro-isoindol-2-yl}-butyl)-isonicotinamide] | 1200 nM | 13 nM | 84 nM | –
COc1ccc([C@@H](CCCNC(=O)C2CCCO2)N2C(=O)c3cccc(N4CCN([C@H](C)c5ccccc5)CC4)c3C2=O)cc1OC (stereo partly drawn) [Cpd 155, (R)-tetrahydro-furan-2-carboxylic acid (4-(3,4-dimethoxy-phenyl)-4-{1,3-dioxo-4-[4-(1R)-(1-phenyl-ethyl)-piperazin-1-yl]-1,3-dihydro-isoindol-2-yl}-butyl)-amide] | 400 nM | 9.4 nM | 45 nM | –
COc1ccc([C@@H](CCCNC(=O)c2csc(C)n2)N2C(=O)c3cccc(N4CCN([C@H](C)c5ccccc5)CC4)c3C2=O)cc1OC [Cpd 156, (R)-2-methyl-thiazole-4-carboxylic acid (4-(3,4-dimethoxy-phenyl)-4-{1,3-dioxo-4-[4-(1R)-(1-phenyl-ethyl)-piperazin-1-yl]-1,3-dihydro-isoindol-2-yl}-butyl)-amide] | 490 nM | 35 nM | 84 nM | –
COc1ccc([C@@H](CCCNC(=O)c2ccc(S(C)(=O)=O)s2)N2C(=O)c3cccc(N4CCN([C@H](C)c5ccccc5)CC4)c3C2=O)cc1OC [Cpd 157, (R)-5-methanesulfonyl-thiophene-2-carboxylic acid (4-(3,4-dimethoxy-phenyl)-4-{1,3-dioxo-4-[4-(1R)-(1-phenyl-ethyl)-piperazin-1-yl]-1,3-dihydro-isoindol-2-yl}-butyl)-amide] | 680 nM | 32 nM | 260 nM | –
COc1ccc([C@@H](CCCNC(=O)c2conc2C)N2C(=O)c3cccc(N4CCN([C@H](C)c5ccccc5)CC4)c3C2=O)cc1OC [Cpd 158, (R)-3-methyl-isoxazole-4-carboxylic acid (4-(3,4-dimethoxy-phenyl)-4-{1,3-dioxo-4-[4-(1R)-(1-phenyl-ethyl)-piperazin-1-yl]-1,3-dihydro-isoindol-2-yl}-butyl)-amide] | 330 nM | 16 nM | 99 nM | –
COc1ccc([C@@H](CCCNC(=O)c2cc(C)on2)N2C(=O)c3cccc(N4CCN([C@H](C)c5ccccc5)CC4)c3C2=O)cc1OC [Cpd 159, (R)-5-methyl-isoxazole-3-carboxylic acid (4-(3,4-dimethoxy-phenyl)-4-{1,3-dioxo-4-[4-(1R)-(1-phenyl-ethyl)-piperazin-1-yl]-1,3-dihydro-isoindol-2-yl}-butyl)-amide] | 750 nM | 34 nM | 150 nM | –
COc1ccc([C@@H](CCCNC(=O)c2ccnnc2)N2C(=O)c3cccc(N4CCN([C@H](C)c5ccccc5)CC4)c3C2=O)cc1OC [Cpd 160, (R)-pyridazine-4-carboxylic acid (4-(3,4-dimethoxy-phenyl)-4-{1,3-dioxo-4-[4-(1R)-(1-phenyl-ethyl)-piperazin-1-yl]-1,3-dihydro-isoindol-2-yl}-butyl)-amide] | 400 nM | 12 nM | 140 nM | –
COc1ccc([C@@H](CCCNC(=O)c2nccn2C)N2C(=O)c3cccc(N4CCN([C@H](C)c5ccccc5)CC4)c3C2=O)cc1OC [Cpd 161, (R)-1-methyl-1H-imidazole-2-carboxylic acid (4-(3,4-dimethoxy-phenyl)-4-{1,3-dioxo-4-[4-(1R)-(1-phenyl-ethyl)-piperazin-1-yl]-1,3-dihydro-isoindol-2-yl}-butyl)-amide] | 630 nM | 19 nM | 120 nM | –
COc1ccc([C@@H](CCCNC(=O)c2cc(C)c(C)o2)N2C(=O)c3cccc(N4CCN([C@H](C)c5ccccc5)CC4)c3C2=O)cc1OC [Cpd 162, (R)-4,5-dimethyl-furan-2-carboxylic acid (4-(3,4-dimethoxy-phenyl)-4-{1,3-dioxo-4-[4-(1R)-(1-phenyl-ethyl)-piperazin-1-yl]-1,3-dihydro-isoindol-2-yl}-butyl)-amide] | 430 nM | 35 nM | 170 nM | –
COc1ccc([C@@H](CCCNC(=O)c2cscn2)N2C(=O)c3cccc(N4CCN([C@H](C)c5ccccc5)CC4)c3C2=O)cc1OC [Cpd 163, (R)-thiazole-4-carboxylic acid (4-(3,4-dimethoxy-phenyl)-4-{1,3-dioxo-4-[4-(1R)-(1-phenyl-ethyl)-piperazin-1-yl]-1,3-dihydro-isoindol-2-yl}-butyl)-amide] | 500 nM | 15 nM | 95 nM | –
COc1ccc([C@@H](CCCNC(=O)c2c(C)noc2C)N2C(=O)c3cccc(N4CCN([C@H](C)c5ccccc5)CC4)c3C2=O)cc1OC [Cpd 164, (R)-3,5-dimethyl-isoxazole-4-carboxylic acid (4-(3,4-dimethoxy-phenyl)-4-{1,3-dioxo-4-[4-(1R)-(1-phenyl-ethyl)-piperazin-1-yl]-1,3-dihydro-isoindol-2-yl}-butyl)-amide] | 300 nM | 13 nM | 100 nM | –
COc1ccc([C@@H](CCCNC2=CCCN2)N2C(=O)c3cccc(N4CCN([C@H](C)c5ccccc5)CC4)c3C2=O)cc1OC [Cpd 165, (R)-2-[4-(4,5-dihydro-1H-pyrrol-2-ylamino)-1-(3,4-dimethoxy-phenyl)-butyl]-4-[4-(1R)-(1-phenyl-ethyl)-piperazin-1-yl]-isoindole-1,3-dione] | 1100 nM | 18 nM | 350 nM | –
COc1ccc([C@@H](CCCNC(C)=N)N2C(=O)c3cccc(N4CCN([C@H](C)c5ccccc5)CC4)c3C2=O)cc1OC [Cpd 166, (R)-N-(4-(3,4-dimethoxy-phenyl)-4-{1,3-dioxo-4-[4-(1R)-(1-phenyl-ethyl)-piperazin-1-yl]-1,3-dihydro-isoindol-2-yl}-butyl)-acetamidine] | 2600 nM | 26 nM | 510 nM | –
COc1ccc([C@@H](CCCNS(=O)(=O)c2cccs2)N2C(=O)c3cccc(N4CCNCC4)c3C2=O)cc1OC [Cpd 167, (R)-thiophene-2-sulfonic acid [4-(3,4-dimethoxy-phenyl)-4-(1,3-dioxo-4-piperazin-1-yl-1,3-dihydro-isoindol-2-yl)-butyl]-amide] | 500 nM | 40 nM | – | 150 nM
CCN1CCN(c2cccc3c2C(=O)N([C@H](CCCNS(=O)(=O)c2cccs2)c2ccc(OC)c(OC)c2)C3=O)CC1 [Cpd 168, (R)-thiophene-2-sulfonic acid {4-(3,4-dimethoxy-phenyl)-4-[4-(4-ethyl-piperazin-1-yl)-1,3-dioxo-1,3-dihydro-isoindol-2-yl]-butyl}-amide] | 150 nM | 4.8 nM | – | 35 nM
